Source: patent publication US6803233B2, “Model for Alzheimer's disease and other neurodegenerative diseases” (priority 2000, dated 2004)
“Also recorded” adds a separate entry of the source.

Tested on: tangle-like structures
Experiment: AT8 immunocytochemistry of cultured mouse hippocampal slices
Type: cell-based
Conditions: ZPAD 6 days; for number of AT8 immunopositive profiles: 0.3 mm^2 box at CA1/subicular border, mean±s.e.m., n=5
Procedure: Hippocampal slices were prepared from 10 to 13 day old C57BL/6J (wild-type) and C57BL/6J-ApoE^tm1Unc (ApoE-knockout) mice obtained from the Jackson laboratory, Bar Harbor, Me. Pups were placed under light bromo-chloro-trifluoroethane anesthesia (Sigma, St. Louis, Mo.), and killed by decapitation. After removing the brains, the hippocampus was dissected and subsequently placed on a McIlwain tissue chopper where slices (400 μm thick) were obtained and placed in a solution of cutting medium consisting of Minimum Essential Medium (MEM) with Earle's salts (Gibco, Grand Island, N.Y.), 25 mM HEPES buffer, 10 mM Tris base, 10 mM glucose, and 3 mM MgCl2, pH 7.20. Hippocampal slices were then placed onto the membranes of Millicell-CM culture inserts (Millipore Corp., Bedford, Mass.) in 6 well culture cluster plates and 1 ml of media per well using the methods described by Stoppini et al., J. Neurosci. Methods 37(2):173-82 (1991). The culture medium was described previously by Bednarski et al., J. Neurosci. 17(11):4006-21 (1997). The cultures were incubated in a 37° C. atmosphere containing 5% CO2 and the culture medium was replaced every other day until the initiation of experiments. Each culture cluster plate contained hippocampal slices from either two wild-type or two apoE-knockout mice and individual wells were used for matched control and experimental treatment groups.
After maintaining the slices with normal culture medium (Bednarski et al., J. Neurosci. 17(11):4006-21 (1997)) in vitro for 12-14 days, slices were incubated with culture medium containing either 20 μM N-CBZ-L-phenylalanyl-L-alanine-diazomethyl-ketone (ZPAD; BACHEM Bioscience, Inc., Torrance, Calif.), an inhibitor of cathepsins B and L (Shaw & Dean, Biochem. J. 186:385-390 (1980); Green & Shaw, J Biol Chem. 256:1923-1928 (1981); Richardson et al., J. Cell Biol. 107: 2097-2107 (1988)) or vehicle (dimethylsulfoxide; DMSO, 0.01%-0.04%) for six days. This treatment media was exchanged every other day.
For immunocytochemical staining, control and ZPAD-treated slices from both wild-type and apoE-deficient mice were fixed in 4% paraformaldehyde in 0.1 M phosphate buffer (“PB”) at 4° C. overnight, rinsed once in a solution of phosphate buffered saline PBS (PB: phosphate buffer: 0.1M Na2HPO4 and NaH2PO4; PBS: phosphate buffered saline: NaCl 8 g, KCl 0.2 g, Na2HPO4 1.44 g, KH2PO4 0.24 g, dissolved in 1 liter distilled water, pH 7.4) cryoprotected in 20% sucrose in 0.1 M PB, sectioned on a freezing microtome at 25 μm parallel to the broad upper surface of the explant and mounted onto sterile Fisher Superfrost/Plus slides. […]

Substance: N-CBZ-L-phenylalanyl-L-alanine-diazomethyl-ketone [ZPAD]
- AT8-immunoreactive tangle-like structures (apoE-knockout mouse slices): present in large numbers; also recorded: significantly increased; also recorded: more than double; also recorded: Numerous, densely stained neurons; also recorded: Numerous immunopositive neurons; also recorded: numerous, densely labeled cells
- number of AT8 immunopositive profiles (apoE-knockout slices): 193.8±15
- AT8-immunoreactive tangle-like structures (wild-type mouse slices): occasionally found; also recorded: far fewer AT8-ir structures
- number of AT8 immunopositive profiles (wild-type slices): 112.6±13
